These compounds were tested against Cholesteryl ester transfer protein (Homo sapiens) (UniProt P11597) (assay: inhibition of human CETP assessed as cholesteryl ester transfer by fluorescence transfer assay relative to control). Conditions: concentration not given here.
Parameters: concentration or dose not given beside the values

Chain of Cholesteryl ester transfer protein (Homo sapiens) (P11597 whole entry, looked up): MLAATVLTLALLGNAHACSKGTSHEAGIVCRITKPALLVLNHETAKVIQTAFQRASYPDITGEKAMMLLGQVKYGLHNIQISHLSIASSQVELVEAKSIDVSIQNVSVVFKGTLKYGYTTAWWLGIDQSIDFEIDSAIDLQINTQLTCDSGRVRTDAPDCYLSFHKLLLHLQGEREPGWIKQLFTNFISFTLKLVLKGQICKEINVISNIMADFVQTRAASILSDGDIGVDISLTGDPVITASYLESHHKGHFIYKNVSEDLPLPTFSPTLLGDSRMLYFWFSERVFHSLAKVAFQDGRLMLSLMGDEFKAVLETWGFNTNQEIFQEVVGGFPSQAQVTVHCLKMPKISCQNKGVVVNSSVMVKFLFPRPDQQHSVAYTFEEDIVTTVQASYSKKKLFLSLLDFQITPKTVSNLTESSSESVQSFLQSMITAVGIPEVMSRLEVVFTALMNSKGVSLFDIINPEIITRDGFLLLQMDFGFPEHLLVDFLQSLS

Row | SMILES | inhibition [%]
1 | Cc1ccccc1OCC(=O)Nc1ccc(-c2nc3ccc([N+](=O)[O-])cc3o2)cc1 | 71
2 | Cc1ccccc1OCC(=O)Nc1ccc(-c2nc3c([N+](=O)[O-])cccc3o2)cc1 | 42
3 | Cc1ccccc1OCC(=O)Nc1ccc(-c2nc3cccc(F)c3o2)cc1 | 36
4 | Cc1ccccc1OCC(=O)Nc1ccc(-c2nc3cccc(Cl)c3o2)cc1 | 71
5 | Cc1ccccc1OCC(=O)Nc1ccc(-c2nc3ccc(F)cc3o2)cc1 | 50

More lines, now with the values ahead:

Row | inhibition [%] | SMILES
6 | 89 | Cc1ccc2oc(-c3ccc(NC(=O)COc4ccccc4C)cc3)nc2c1
7 | 79 | Cc1ccccc1OCC(=O)Nc1ccc(-c2nc3cc([N+](=O)[O-])ccc3o2)cc1
8 | 34 | Cc1ccc2nc(-c3ccc(NC(=O)COc4ccccc4C)cc3)oc2c1
